Measurements as given in article PMC8058344, “ARIH1 signaling promotes anti-tumor immunity by targeting PD-L1 for proteasomal degradation” (Nature Communications, 2021).
Where “and” joins values, the source holds several entries; their conditions need not be identical. Equal values may be shown once. Values belong to the compound of their own block, whether it stands above or below them. Residues, ends and D or L forms follow the SMILES beside them. *: point of attachment. Cbz = O=C(OCc1ccccc1)*

What was measured:
[1] = test system: PD-L1 in U937 cells; test: PD-L1 levels in U937 cells by western blotting and flow cytometry; format: cell-based, human
Experimental: (§1) Fig. 1 EGFR inhibitors were screened to reduce membrane PD-L1 levels. a High-throughput screening of 2125 FDA-approved drugs or drug candidates. U937 cells were incubated with IFNγ (100 ng/mL) for 48 h, treated with the drugs at 10 μM for 12 h. Ruxolitinib (Rux) was used as a positive control. The hit compounds that induced the decrease of PD-L1 levels are shown in blue. The depth of blue represents decreased level of PD-L1. The heatmap represents the targeted pathways obtained from the high-throughput screening, based upon decreased membrane PD-L1 level detected by flow cytometry. b Immunoblotting of PD-L1 in U937 cells treated with ES-072 (ES) or AZD9291 (AZD) at indicated concentrations for 12 h. ES and AZD are EGFR inhibitors. c, d Median fluorescence intensity (MFI) (c) and relative quantification (d) of PD-L1 in U937 cells treated with 10 μM ES-072 or 10 μM AZD9291 for 12 h. Data represent means ± SEM, n = 18, 6 independent repeats, ****P < 0.0001. e–g Immunoblotting (e, f) and flow cytometry (g) analysis of PD-L1 levels in U937 cells treated with 10 μM ES-072 or 10 μM AZD9291 for the indicated times. h, i Immunoblottings (h) of PD-L1 and β-TrCP, relative quantification (i) of PD-L1 MFI in H1975 cells transfected with non-targeting siRNA (si-CTRL) or β-TrCP siRNAs (si-β-TrCP) and treated with or without 10 μM ES-072/AZD9291 for 12 h. Data represent means ± SEM, n = 9, 3 independent repeats, NS: no significant; ****P < 0.0001. j–l Immunoblotting (j) and flow cytometry analysis (k) with relative quantification (l) of PD-L1 in H1975 cells treated with 10 μM ES-072 or AZD9291, and/or 5 μM LY2090314 (LY) for 12 h. LY is a GSK3 inhibitor. […]
For western blot analysis, cells were collected and washed with PBS, then lysed in radioimmunoprecipitation assay (RIPA) buffer (1% Triton X-100, 100 mM Tris-HCl pH 8.8, 100 mM NaCl, 0.5 mM EDTA). […] The supernatant was collected and the protein concentration was measured by bicinchoninic acid reaction. […] Signals were detected using chemiluminescence reagents (#4AW001-500, 4A649 Biotech, Co.). […]

[2] = molecular target: GSK3α (Homo sapiens, UniProt P49840); test: In vitro kinase specificity profiling for GSK3α; format: biochemical
Sequence of GSK3α (P49840 whole entry): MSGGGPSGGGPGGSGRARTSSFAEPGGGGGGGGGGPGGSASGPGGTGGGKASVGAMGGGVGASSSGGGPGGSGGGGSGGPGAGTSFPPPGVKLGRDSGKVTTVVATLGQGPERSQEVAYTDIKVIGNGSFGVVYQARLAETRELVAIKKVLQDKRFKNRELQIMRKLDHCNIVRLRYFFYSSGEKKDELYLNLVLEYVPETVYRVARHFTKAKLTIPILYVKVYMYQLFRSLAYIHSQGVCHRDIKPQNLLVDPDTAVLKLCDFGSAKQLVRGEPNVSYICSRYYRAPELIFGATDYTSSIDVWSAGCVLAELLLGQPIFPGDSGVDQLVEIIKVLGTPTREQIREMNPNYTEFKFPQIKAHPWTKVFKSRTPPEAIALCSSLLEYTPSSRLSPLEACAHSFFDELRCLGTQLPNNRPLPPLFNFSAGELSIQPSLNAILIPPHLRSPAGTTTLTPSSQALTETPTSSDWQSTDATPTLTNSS

[3] = test system: PD-L1 in H1975 cells; test: PD-L1 levels in H1975 cells by immunoblotting and flow cytometry; format: cell-based, human
Experimental: as §1, with “h.” for “h. LY is a GSK3 inhibitor.”
Fig. 5 GSK3α-mediated phosphorylation of PD-L1 promotes PD-L1-ARIH1 interaction and ARIH1-induced degradation. a Co-IP analysis for the interaction of K48-ubiquitin, ARIH1 (HA), and PD-L1 in HEK293T cells transfected with HA-ARIH1 and Flag-PD-L1 (WT, S279A, S283A, or 2SA), treated with MG132 (10 μM) for 6 h; HA-tagged empty vector (HA-EV) was transfected as a negative control. b Co-IP analysis for the interaction of ARIH1 and PD-L1 in HEK293T cells transfected with HA-ARIH1 and Flag-PD-L1 (WT or 2SA), treated with 10 μM ES-072 for 24 h, Flag-tagged empty vector (Flag-EV) was transfected as a negative control. c HEK293T cells were transfected with Flag-PD-L1. Co-IP analysis for the interaction of ubiquitin and PD-L1 in HEK293T cells transfected with ARIH1-siRNAs or HA-GSK3α and treated with MG132 (10 μM) for 6 h; non-targeting siRNA (si-CTRL) was transfected as a negative control. d Immunoblots of PD-L1 and ARIH1 (HA) in H1975 cells transfected with HA-ARIH1, treated with or without 5 μM LY for 6 h. e, f MFI (e) and relative quantification (f) of PD-L1 in HA-ARIH1-overexpressed H1975 cells, treated with or without 5 μM LY for 6 h. […]

Structure (SMILES): C=CC(=O)Nc1cc(Nc2nccc(-c3cn(C)c4ccccc34)n2)c(OC)cc1N(C)CCN(C)C [AZD9291, Osimertinib]
IFNγ-induced membranal PD-L1 levels ([1]; western blotting and flow cytometry, 10 μM, 12 h): dramatically reduced

IC50 ([2]; single independent tests): 0.98 nM and 0.81 nM and 0.84 nM | IC50 ([2]; value with spread given in main text): 0.87 ± 0.09 nM
Structure (SMILES): O=C1NC(=O)C(c2cnc3ccccn23)=C1c1cn2c3c(cc(F)cc13)CN(C(=O)N1CCCCC1)CC2 [LY2090314]
ARIH1-overexpression-induced degradation of PD-L1 ([3]; H1975 cells transfected with HA-ARIH1, 5 μM LY for 6 h): rescued | reduction of PD-L1 levels induced following EGFR inhibition ([3]; H1975 cells, 5 μM LY2090314 with 10 μM ES-072 or AZD9291, 12 h): did block this reduction

Structure (SMILES): CC(C)C[C@@H](C=O)NC(=O)[C@H](CC(C)C)NC(=O)[C@H](CC(C)C)NC(=O)OCc1ccccc1 [MG132] (Cbz-Leu-Leu-Leu-aldehyde)
decrease in the PD-L1 levels induced by ES-072 ([3]; H1975 cells, 10 μM ES-072 and 10 μM MG132 for 6 h): rescued

Structure (SMILES): N#CC[C@H](C1CCCC1)n1cc(-c2ncnc3[nH]ccc23)cn1 [Ruxolitinib]
IFNγ-induced PD-L1 levels ([1]; 100 ng/mL IFNγ 48 h, 10 μM Ruxolitinib 12 h): blocked
